# Assay results as given in ChEMBL document CHEMBL1201862, “PubChem BioAssay data set” (2004).
# Activity calls are given as the source filed them.
# Columns and labels:
# [1] = molecular target: Scavenger receptor class B member 1 (Mus musculus, UniProt Q61009); assay: mouse SR-BI DiI-HDL uptake blockers – ldlA[mSR-BI] cells, fluorescence, cherry pick, dose response (AID 493194); assay type: functional, cell-based;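 note: cellular uptake of fluorescent DiI-labeled HDL measured as cell fluorescence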
# [2] = system: Streptococcus; assay: Luminescence Microorganism-Based Dose Response Follow up to Identify Compounds Cytotoxic to Streptococcus. [Related pubchem assays: 1677 (Project Summary), 1915, 1914, 1902 (Retest at Dose), 1900 (Counter Screen), 1662 (Primary HTS)]; assay type: functional, organism-based
# [3] = system: Streptococcus sp. 'group A'; assay: Streptococcus pyogenes SK(-)GAS viability under kanamycin – luminescence, BacTiterGlo, confirmation, counter-screen for streptokinase expression inhibitor project, dose response (AID 1900); assay type: functional, organism-based
# [4] = molecular target: T1, Streptokinase A (Streptococcus pyogenes serotype M1, UniProt P10520); assay: viability-normalized secreted streptokinase activity reduction – plasminogen activation absorbance, OD405, dose response (AID 1914); assay type: functional, Streptococcus pyogenes M1 GAS;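 note: secreted streptokinase activity via plasminogen activation per viability signal from cell pellet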
# T1 sequence (P10520 whole entry): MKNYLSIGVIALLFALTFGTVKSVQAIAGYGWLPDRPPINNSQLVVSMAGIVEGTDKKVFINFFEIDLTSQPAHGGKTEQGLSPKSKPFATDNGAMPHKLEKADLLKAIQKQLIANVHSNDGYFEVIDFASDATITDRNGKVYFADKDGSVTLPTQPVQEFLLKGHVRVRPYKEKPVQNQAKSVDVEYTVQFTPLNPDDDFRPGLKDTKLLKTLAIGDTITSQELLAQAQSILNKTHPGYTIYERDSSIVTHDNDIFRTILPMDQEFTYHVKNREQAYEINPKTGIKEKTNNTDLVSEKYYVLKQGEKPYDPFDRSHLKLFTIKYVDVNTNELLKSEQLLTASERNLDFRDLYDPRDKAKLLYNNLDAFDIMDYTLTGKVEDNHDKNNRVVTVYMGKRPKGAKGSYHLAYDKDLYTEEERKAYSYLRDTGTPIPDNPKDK
# [5] = system: Streptococcus; assay: GAS UMAA2166 growth inhibition – luminescence, BacTiterGlo, counter-screen for streptokinase expression inhibitor project, dose response (AID 1915); assay type: functional, organism-based;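 note: potency for reduction of bacterial viability or growth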
# [6] = molecular target: Voltage-gated N-type calcium channel alpha-1B subunit/Amyloid beta A4 precursor protein-binding family A member 1 (Homo sapiens, UniProt Q00975+Q02410); assay: disruptors of Mint-PDZ/N-type channel peptide interaction – biochemical, HTRF, set 2, SAR follow-up (AID 434980); assay type: functional
# Voltage-gated N-type calcium channel alpha-1B subunit/Amyloid beta A4 precursor protein-binding family A member 1, sequence (Q00975 whole entry): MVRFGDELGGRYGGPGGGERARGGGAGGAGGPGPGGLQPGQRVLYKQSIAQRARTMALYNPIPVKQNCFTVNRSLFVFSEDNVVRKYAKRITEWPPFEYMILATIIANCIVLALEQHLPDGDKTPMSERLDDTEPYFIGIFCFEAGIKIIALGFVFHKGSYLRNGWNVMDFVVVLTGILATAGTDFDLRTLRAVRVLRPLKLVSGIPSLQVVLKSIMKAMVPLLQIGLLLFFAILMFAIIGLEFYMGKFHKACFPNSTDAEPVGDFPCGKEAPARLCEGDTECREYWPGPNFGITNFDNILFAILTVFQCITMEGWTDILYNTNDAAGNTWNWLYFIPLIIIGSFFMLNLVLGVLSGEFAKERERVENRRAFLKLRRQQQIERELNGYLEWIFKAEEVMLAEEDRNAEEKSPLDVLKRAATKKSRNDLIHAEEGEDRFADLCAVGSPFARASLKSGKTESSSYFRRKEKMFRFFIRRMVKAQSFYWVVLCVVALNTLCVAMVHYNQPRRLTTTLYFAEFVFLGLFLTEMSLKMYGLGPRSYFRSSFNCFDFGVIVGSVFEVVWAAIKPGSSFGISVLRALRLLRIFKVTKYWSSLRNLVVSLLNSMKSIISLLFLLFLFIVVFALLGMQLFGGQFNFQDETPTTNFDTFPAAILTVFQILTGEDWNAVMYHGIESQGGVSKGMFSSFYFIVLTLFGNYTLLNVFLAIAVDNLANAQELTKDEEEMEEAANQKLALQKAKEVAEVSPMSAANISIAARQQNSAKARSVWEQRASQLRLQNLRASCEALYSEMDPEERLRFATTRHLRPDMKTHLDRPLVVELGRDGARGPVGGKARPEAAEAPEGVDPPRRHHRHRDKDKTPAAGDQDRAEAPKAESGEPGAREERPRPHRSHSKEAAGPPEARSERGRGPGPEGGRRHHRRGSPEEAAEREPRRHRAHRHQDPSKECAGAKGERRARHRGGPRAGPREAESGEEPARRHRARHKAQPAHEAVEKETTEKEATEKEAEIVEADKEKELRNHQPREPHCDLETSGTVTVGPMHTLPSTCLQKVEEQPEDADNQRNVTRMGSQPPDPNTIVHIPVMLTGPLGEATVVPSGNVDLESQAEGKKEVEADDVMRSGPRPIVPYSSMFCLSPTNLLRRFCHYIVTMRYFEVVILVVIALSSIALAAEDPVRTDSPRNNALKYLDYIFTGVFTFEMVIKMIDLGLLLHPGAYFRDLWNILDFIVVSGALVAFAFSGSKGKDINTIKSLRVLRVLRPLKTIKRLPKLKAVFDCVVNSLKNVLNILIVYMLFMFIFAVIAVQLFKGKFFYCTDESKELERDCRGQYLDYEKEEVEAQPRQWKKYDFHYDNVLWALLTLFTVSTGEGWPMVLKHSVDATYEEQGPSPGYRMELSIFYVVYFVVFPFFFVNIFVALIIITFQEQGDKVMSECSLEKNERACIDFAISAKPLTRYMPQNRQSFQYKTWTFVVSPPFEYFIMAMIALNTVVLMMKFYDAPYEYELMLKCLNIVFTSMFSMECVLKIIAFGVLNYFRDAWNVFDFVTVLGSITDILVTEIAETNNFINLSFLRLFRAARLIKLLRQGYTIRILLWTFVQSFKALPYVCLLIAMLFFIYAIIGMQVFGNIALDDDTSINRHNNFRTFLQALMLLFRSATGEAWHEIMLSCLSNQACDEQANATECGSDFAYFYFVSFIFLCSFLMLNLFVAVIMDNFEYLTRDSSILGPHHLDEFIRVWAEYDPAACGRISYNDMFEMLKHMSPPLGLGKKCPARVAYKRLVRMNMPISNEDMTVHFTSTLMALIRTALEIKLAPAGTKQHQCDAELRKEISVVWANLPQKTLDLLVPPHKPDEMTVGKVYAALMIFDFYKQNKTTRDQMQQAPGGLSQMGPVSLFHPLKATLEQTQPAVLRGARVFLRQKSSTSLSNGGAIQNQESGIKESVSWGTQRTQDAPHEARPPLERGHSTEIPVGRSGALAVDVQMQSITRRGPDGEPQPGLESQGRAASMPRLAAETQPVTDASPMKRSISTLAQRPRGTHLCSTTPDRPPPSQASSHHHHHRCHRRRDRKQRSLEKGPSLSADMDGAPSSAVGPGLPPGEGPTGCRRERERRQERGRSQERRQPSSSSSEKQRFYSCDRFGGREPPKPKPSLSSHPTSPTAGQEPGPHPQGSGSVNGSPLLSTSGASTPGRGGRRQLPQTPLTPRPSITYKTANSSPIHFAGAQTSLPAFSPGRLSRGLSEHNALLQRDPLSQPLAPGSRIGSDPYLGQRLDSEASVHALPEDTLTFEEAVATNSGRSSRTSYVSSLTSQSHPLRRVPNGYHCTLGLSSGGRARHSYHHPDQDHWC
# Voltage-gated N-type calcium channel alpha-1B subunit/Amyloid beta A4 precursor protein-binding family A member 1, sequence (Q02410 whole entry): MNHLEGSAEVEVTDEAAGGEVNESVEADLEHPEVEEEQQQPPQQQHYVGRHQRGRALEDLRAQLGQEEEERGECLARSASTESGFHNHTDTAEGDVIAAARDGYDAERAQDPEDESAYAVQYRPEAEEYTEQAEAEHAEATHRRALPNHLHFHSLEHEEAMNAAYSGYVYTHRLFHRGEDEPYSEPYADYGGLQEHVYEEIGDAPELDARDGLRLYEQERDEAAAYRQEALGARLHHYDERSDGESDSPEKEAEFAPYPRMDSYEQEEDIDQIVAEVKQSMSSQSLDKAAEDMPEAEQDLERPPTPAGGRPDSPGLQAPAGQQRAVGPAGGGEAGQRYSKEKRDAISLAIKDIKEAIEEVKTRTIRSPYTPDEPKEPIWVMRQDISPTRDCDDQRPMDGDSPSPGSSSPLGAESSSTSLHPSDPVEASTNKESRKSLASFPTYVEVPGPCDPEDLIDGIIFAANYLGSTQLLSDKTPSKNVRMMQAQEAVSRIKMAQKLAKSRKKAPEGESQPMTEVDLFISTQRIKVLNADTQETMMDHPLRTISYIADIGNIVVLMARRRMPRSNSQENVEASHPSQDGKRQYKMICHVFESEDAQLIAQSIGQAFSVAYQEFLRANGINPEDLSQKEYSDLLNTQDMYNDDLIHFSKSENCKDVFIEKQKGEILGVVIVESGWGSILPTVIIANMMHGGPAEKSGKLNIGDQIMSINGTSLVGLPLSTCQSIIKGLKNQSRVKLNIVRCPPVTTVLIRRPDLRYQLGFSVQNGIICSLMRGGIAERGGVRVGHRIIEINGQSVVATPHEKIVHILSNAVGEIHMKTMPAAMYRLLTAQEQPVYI
# [7] = molecular target: Tyrosine-protein phosphatase non-receptor type 5 (Homo sapiens, UniProt P54829); assay: PTPN5 enzyme inhibition – biochemical, fluorescence intensity, uHTS hits, confirmation (AID 602372); assay type: functional; settings: read-out: IC50_Mean
# [8] = molecular target: ORF 73 (Human herpesvirus 8, UniProt O40947); assay: KSHV LANA DNA-binding disruption – biochemical, fluorescence polarization, cherry-picked samples, dose response (AID 504725); design: species or system Human gammaherpesvirus 8;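 note: fluorescence polarization of a labeled DNA duplex reporting LANA DNA binding; potency is for inhibitors that block LANA binding to the DNA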
# ORF 73, sequence (O40947 whole entry): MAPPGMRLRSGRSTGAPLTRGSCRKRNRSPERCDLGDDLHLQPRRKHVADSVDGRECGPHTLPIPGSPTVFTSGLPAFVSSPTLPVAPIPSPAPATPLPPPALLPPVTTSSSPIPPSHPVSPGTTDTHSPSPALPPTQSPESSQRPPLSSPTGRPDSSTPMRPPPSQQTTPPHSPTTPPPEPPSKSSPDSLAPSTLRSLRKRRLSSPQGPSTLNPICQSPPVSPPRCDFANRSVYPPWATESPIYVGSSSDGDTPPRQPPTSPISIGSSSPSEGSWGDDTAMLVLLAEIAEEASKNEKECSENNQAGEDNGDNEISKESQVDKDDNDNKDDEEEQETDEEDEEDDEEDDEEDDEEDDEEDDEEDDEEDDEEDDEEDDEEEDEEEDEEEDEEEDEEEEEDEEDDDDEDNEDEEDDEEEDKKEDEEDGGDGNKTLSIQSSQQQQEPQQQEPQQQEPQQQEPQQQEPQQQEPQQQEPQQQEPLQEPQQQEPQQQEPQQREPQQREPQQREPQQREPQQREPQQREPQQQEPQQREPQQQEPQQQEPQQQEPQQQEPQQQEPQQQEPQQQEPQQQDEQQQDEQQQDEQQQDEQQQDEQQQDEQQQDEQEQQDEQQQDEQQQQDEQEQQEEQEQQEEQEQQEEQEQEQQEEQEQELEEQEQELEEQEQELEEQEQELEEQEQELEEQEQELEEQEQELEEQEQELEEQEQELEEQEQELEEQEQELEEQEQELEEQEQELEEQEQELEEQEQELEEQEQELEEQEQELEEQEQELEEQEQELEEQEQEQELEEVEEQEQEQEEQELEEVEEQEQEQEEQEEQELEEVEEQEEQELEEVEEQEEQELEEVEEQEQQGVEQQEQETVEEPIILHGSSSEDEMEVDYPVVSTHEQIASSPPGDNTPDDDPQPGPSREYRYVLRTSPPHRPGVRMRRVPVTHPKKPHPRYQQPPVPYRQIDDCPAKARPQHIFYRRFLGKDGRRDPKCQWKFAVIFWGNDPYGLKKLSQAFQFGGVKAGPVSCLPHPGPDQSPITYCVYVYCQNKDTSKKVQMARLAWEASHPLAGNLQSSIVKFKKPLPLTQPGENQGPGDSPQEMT
# [9] = system: Vero; assay: viability of Vero cells under compound – cytotoxicity control for flavivirus capping enzyme inhibitors (AID 588742); assay type: functional; settings: Chlorocebus sabaeus
# [10] = system: HeLa; assay: viability loss in HeLa cells – cell-based, 24 h, cherry-picked samples, cytotoxicity control, dose response (AID 504726); assay type: functional; settings: Homo sapiens;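 note: potency for cytotoxicity as loss of luminescence signal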
# [11] = molecular target: Dual specificity protein phosphatase 3 (Homo sapiens, UniProt P51452); assay: VHR phosphatase inhibition, dose response, selectivity assay for STEP inhibitor project, biochemical (AID 602374); assay type: functional; settings: read-out: IC50_Mean
# Dual specificity protein phosphatase 3, sequence (P51452 whole entry): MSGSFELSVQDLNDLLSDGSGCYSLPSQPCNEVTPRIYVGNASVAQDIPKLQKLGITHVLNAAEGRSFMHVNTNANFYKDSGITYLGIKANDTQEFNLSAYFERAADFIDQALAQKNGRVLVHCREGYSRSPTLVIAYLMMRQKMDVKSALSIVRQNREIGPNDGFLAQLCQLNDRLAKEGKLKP
# [12] = molecular target: Tyrosine-protein phosphatase non-receptor type 11 (Homo sapiens, UniProt Q06124); assay: PTPN11 enzyme inhibitors – biochemical, selectivity assay for STEP inhibitor project, dose response (AID 602367); assay type: functional; settings: read-out: IC50_Mean
# [13] = molecular target: Genome polyprotein (dengue virus type 2, UniProt P29990); assay: flavivirus cap methylation enzyme inhibition – biochemical, confirmation dose response, primary screen (AID 588689); assay type: functional
# [14] = molecular target: Cyclin-dependent kinase 5/CDK5 activator 1 (Homo sapiens, UniProt Q00535); assay: blockade of human CDK5 activity – biochemical, cherry-picked samples, set 2, dose response (AID 504545)
# Cyclin-dependent kinase 5/CDK5 activator 1, sequence (Q00535 whole entry): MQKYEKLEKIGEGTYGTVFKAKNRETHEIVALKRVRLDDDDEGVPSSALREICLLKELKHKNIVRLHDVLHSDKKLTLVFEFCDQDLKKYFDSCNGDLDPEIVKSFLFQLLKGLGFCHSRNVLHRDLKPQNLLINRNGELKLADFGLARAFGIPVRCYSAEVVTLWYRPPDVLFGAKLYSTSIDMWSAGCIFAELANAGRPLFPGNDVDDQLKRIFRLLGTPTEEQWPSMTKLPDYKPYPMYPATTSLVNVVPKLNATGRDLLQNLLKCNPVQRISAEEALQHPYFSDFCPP
# Cyclin-dependent kinase 5/CDK5 activator 1, sequence (Q15078 whole entry, further chain): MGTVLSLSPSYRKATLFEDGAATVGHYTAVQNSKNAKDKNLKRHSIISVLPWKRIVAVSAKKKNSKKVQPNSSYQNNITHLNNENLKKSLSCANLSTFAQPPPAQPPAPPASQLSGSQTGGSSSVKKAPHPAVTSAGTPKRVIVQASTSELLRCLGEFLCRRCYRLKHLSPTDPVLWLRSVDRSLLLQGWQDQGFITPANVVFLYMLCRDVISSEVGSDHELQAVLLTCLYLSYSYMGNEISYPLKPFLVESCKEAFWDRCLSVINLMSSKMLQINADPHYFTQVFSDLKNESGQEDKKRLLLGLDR
smiles,measurement,setting,value
Cc1cc(C(=O)C(C)OC(=O)C2=NNC(=O)CC2)c(C)n1-c1ccc(OC(F)F)cc1 (centres undefined),AC50,[1],3.29 µM (active)
CCOC(=O)c1c(NC(=O)c2cccs2)sc(CC)c1-c1cccs1,EC50,[2],> 500 µM (not active)
same,EC50,[3],47.6 µM (active)
same,EC50,[4],9.89 µM (active)
same,EC50,[5],> 150 µM (not active)
CN1CCCC1CCNC(=O)c1cc(-c2ccco2)nc2ccccc12 (centres undefined),IC50,[6],24.5 µM (active)
CC1=C(O)C(O)=C(C2=C(O)C(O)=C(C)C(=O)C2=O)C(=O)C1=O,IC50,[7],> 80 µM (inactive)
same,AC50,[8],312 µM (active)
same,CC50,[9],31.7 µM (active)
same,AC50,[10],61.8 µM (active)
same,IC50,[11],1.27 µM (active)
same,IC50,[12],< 0.16 µM (active)
same,IC50,[13],28.3 µM (active)
CC(C)n1cnc2c(Nc3cccc(Cl)c3)nc(NCCCO)nc21,AC50,[14],2.59 µM (active)
